Common to all, as to assay type: cell-based
Assay [1] relates to Baf3-19del- T790M -C797S (Baf3-DTC). The assay can be described thus: Cell anti-proliferation experiment (CTG). The procedure, abridged: (§1)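 Cells were seeded at 1500–2500/well and dosed after ~24 h with compound in a 1:4 dilution series up to 10,000 nM, in triplicate. Viability was read by CTG luminescence after 72 h, normalized to the 0.1% DMSO control and medium blank, and IC50 was obtained by curve fitting.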

Assay [2] concerns PC-9. The assay can be described thus: Cell anti-proliferation experiment (CTG). As to conditions: Homo sapiens, PC-9 (EGFR exon 19 deletion). In a few lines:
as §1

For assay [3], the system named is A431. The assay can be described thus: Cell anti-proliferation experiment (CTG). The note with it: Homo sapiens, A431 (wild-type EGFR). In a few lines:
as §1

Assay [4] deals with A549. Description: Cell anti-proliferation experiment (CTG). As to conditions: Homo sapiens, A549 (wild-type EGFR). In a few lines: as §1
Assay [5] relates to H1975. Description: Cell anti-proliferation experiment (CTG). As to conditions: Homo sapiens, H1975 (EGFR T790M/L858R). In a few lines: as §1
Assay [6] relates to Baf3-L858R-T790M - C797S (Baf3-LTC). Description: Cell anti-proliferation experiment (CTG). The procedure, abridged:
as §1

The subject of assay [7] is HCC827. The assay can be described thus: Cell anti-proliferation experiment (CTG). The note with it: Homo sapiens, HCC827 (exon 19 deletion). In a few lines: as §1
For assay [8], the target named is EGFR in Baf3-19del-T790M-C797S (Homo sapiens, UniProt P00533, C797S/DEL746-750/T790M). Description: EGFR PROTAC HTRF experiment (total EGFR degradation). The procedure, abridged: (§2)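 Ba/F3 clones stably expressing EGFR L858R/T790M/C797S or del19/T790M/C797S were treated with compound; total EGFR measured by HTRF with Eu and d2 antibodies. DC50 and Dmax derived from fitted curves.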

For assay [9], the target named is EGFR in Baf3-L858R-T790M-C797S (Homo sapiens, UniProt P00533, C797S/L858R/T790M). Described as above. The procedure, abridged: as §2
Setting [10] is: 72 h, number after the class symbol.
Where [11] appears, read: PC-9, 72 h, number after the class symbol.
The mark [12] stands for this setting: A-431, 72 h, number after the class symbol.
Setting [13] is: A549, 72 h, number after the class symbol.
Setting [14] is: NCI-H1975, 72 h, number after the class symbol.
Setting [15] is: HCC827, 72 h, number after the class symbol.
Setting [16] is: Baf3-DTC, incubated 16 hours, HTRF total EGFR; read-out: Baf3-DTC DC50.
The mark [17] stands for this setting: Baf3-DTC, incubated 16 hours, HTRF total EGFR; read-out: Baf3-DTC Dmax.
Setting [18] is: Baf3-LTC, incubated 16 hours, HTRF total EGFR; read-out: Baf3-LTC DC50.
Where [19] appears, read: Baf3-LTC, incubated 16 hours, HTRF total EGFR; read-out: Baf3-LTC Dmax.

Like-named read-outs stand apart in the source and are kept apart here.

EGFR in Baf3-19del-T790M-C797S, sequence (P00533 with tags, fused parts or gaps DEL746-750/T790M/C797S): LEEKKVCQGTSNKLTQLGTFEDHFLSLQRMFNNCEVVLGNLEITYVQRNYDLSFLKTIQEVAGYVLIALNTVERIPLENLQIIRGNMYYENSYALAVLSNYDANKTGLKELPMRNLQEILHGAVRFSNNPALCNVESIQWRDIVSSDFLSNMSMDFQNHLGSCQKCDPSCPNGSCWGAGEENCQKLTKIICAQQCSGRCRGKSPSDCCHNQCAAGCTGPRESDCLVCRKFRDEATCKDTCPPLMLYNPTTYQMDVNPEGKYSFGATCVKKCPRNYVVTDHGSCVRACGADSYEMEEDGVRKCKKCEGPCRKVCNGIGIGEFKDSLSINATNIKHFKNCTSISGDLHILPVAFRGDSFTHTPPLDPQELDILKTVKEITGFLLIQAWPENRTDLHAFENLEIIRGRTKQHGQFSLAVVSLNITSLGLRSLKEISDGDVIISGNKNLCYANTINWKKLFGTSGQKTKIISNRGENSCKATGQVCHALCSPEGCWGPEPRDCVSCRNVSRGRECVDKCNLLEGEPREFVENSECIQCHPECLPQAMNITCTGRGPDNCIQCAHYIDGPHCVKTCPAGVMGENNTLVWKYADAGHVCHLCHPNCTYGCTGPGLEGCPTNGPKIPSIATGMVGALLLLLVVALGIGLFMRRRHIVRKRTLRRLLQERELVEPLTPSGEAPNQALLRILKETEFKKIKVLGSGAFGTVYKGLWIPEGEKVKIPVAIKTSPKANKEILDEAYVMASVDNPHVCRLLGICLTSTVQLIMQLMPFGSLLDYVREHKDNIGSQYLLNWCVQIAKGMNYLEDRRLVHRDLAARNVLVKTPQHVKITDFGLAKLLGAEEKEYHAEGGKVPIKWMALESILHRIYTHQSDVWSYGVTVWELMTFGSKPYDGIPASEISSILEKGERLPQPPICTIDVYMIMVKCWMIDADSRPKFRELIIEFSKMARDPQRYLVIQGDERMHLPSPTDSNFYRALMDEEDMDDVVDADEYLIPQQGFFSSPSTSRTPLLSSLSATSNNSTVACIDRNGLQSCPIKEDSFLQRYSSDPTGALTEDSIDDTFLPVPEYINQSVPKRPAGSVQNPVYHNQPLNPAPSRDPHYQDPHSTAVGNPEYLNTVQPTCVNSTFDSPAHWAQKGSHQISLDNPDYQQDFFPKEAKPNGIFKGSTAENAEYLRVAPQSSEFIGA
EGFR in Baf3-L858R-T790M-C797S, sequence (P00533 25-1210 T790M/C797S/L858R): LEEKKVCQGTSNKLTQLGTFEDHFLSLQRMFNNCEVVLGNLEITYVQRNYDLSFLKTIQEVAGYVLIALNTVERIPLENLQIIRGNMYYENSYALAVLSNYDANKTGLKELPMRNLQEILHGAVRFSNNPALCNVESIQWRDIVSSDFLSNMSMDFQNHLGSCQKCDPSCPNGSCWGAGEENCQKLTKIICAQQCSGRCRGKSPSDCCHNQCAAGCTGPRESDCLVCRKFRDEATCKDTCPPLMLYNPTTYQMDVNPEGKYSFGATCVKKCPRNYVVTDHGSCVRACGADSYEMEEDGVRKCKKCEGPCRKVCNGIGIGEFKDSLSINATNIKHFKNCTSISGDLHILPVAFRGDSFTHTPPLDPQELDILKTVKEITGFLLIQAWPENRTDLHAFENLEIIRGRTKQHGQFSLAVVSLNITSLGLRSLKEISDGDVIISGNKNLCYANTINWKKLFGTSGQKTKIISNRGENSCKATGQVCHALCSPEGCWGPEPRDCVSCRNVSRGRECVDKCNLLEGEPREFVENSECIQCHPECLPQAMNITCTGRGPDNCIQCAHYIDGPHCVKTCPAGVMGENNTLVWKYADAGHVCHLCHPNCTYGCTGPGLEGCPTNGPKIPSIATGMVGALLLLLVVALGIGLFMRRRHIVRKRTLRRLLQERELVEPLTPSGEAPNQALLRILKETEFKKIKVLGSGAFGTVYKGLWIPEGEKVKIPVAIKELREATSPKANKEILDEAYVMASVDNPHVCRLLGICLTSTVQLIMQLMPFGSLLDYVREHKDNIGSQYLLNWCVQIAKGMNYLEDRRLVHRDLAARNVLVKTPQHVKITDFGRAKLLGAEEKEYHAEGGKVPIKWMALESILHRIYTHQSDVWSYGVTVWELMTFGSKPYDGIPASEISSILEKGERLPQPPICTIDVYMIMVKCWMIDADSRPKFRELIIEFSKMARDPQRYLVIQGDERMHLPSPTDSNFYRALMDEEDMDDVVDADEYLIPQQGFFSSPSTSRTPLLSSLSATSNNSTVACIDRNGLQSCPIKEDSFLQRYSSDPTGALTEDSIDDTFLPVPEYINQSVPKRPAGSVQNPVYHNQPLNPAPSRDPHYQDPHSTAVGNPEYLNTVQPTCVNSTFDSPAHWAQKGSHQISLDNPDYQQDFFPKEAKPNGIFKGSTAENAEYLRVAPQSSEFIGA

For `COc1cc(N2CCC(CN3CCN(c4ccc5c(c4)C(=O)N(C4CCC(=O)NC4=O)C5=O)CC3)CC2)c(-c2cnn(C)c2)cc1Nc1ncc(Br)c(Nc2ccc(C3CC3)cc2P(C)(C)=O)n1` (centres unmarked) [DZL-1, reference compound], the half-inhibitory concentration (IC50) in assay [1] (72 h, class symbol) is 0.01 to 0.1 µM; in assay [1] (setting [10]), 0.0145 µM; in assay [2] (PC-9, 72 h, class symbol) it was 0.1 to 1 µM; in [2] (setting [11]), 0.205 µM; in [3] (A-431, 72 h, class symbol), over 1 µM; in assay [3] (setting [12]) it was over 5 µM. The IC50 in [4] (A549, 72 h, class symbol) was over 1 µM; in assay [4] (setting [13]), over 5 µM; in [5] (NCI-H1975, 72 h, class symbol), 0.01 to 0.1 µM; in assay [5] (setting [14]), 0.0548 µM; in [6] (72 h, class symbol), 0.01 to 0.1 µM; in assay [6] (setting [10]) it was 0.0136 µM. In addition, the IC50 in assay [7] (HCC827, 72 h, class symbol) is 0.1 to 1 µM; in [7] (setting [15]) it was 0.105 µM. Besides, the DC50 in assay [8] (setting [16]) and in [9] (setting [18]) was 0.01 to 0.1 µM in each case. Also, the Dmax in assay [8] (setting [17]) and in [9] (setting [19]) was 70 to 100% in each case.

In the case of `CCc1cc(Nc2ncc(Cl)c(Nc3ccccc3C(=O)NC)n2)c(OC)cc1N1CCN(C(=O)CN2CCC(c3cc4c(cc3F)c(N3CCC(=O)NC3=O)nn4C)C(F)(F)C2)CC1` (centres unmarked) [TA-003], the IC50 was 0.1 to 1 µM in assay [1] (72 hours, class symbol); over 1 µM in assay [2] (72 hours, class symbol); over 1 µM in assay [3] (A-431, 72 hours, class symbol); over 1 µM in [4] (72 hours, class symbol); under 0.01 µM in assay [5] (NCI-H1975, 72 hours, class symbol); 0.1 to 1 µM in [6] (72 hours, class symbol). Further, the IC50 in [7] (72 hours, class symbol) is over 1 µM. In addition, the DC50 in [8] (read-out: Baf3-DTC DC50; Baf3-DTC, incubated 16 hours, HTRF total EGFR) fell in the range of 0.01 to 0.1 µM; in [9] (read-out: Baf3-LTC DC50; Baf3-LTC, incubated 16 hours, HTRF total EGFR), 0.01 to 0.1 µM. The Dmax in assay [8] (read-out: Baf3-DTC Dmax) and in assay [9] (read-out: Baf3-LTC Dmax) was 70 to 100% throughout.

Turning to `CCc1cc(Nc2ncc(Cl)c(Nc3ccccc3P(C)(C)=O)n2)c(OC)cc1N1CC2(CCN(C(=O)CN3CCC(c4cc5c(cc4F)c(N4CCC(=O)NC4=O)nn5C)C(F)(F)C3)CC2)C1` (centres unmarked) [TA-023], the IC50 in assay [1] (72 h, class symbol) is 0.1 to 1 µM; in assay [1] (setting [10]) it was 0.202 µM; in assay [2] (PC-9, 72 h, class symbol), 0.1 to 1 µM; in assay [2] (setting [11]), 0.461 µM; in [3] (A-431, 72 h, class symbol) it was over 1 µM; in assay [3] (setting [12]), 1.18 µM. The IC50 was over 1 µM in [4] (A549, 72 h, class symbol); 1.26 µM in assay [4] (setting [13]); 0.01 to 0.1 µM in assay [5] (NCI-H1975, 72 h, class symbol); 0.0147 µM in [5] (setting [14]); under 0.01 µM in [6] (72 h, class symbol); 0.0084 µM in assay [6] (setting [10]). Besides, the IC50 in assay [7] (HCC827, 72 h, class symbol) is 0.1 to 1 µM; in assay [7] (setting [15]) it was 0.593 µM. Moreover, the 50% degradation concentration (DC50) in assay [8] (setting [16]) and in [9] (setting [18]) was 0.01 to 0.1 µM each time. Further, the Dmax in assay [8] (setting [17]) and in assay [9] (setting [19]) was 70 to 100% each time.

In the case of `CCc1cc(Nc2ncc(Cl)c(Nc3ccccc3P(C)(C)=O)n2)c(OC)cc1N1CCN(C(=O)CN2CCC(c3cc4c(cc3F)c(N3CCC(=O)NC3=O)nn4C)C(F)(F)C2)CC1` (centres unmarked) [TC-157], the IC50 is under 0.01 µM in assay [1] (72 h, class symbol); 0.0041 µM in assay [1] (setting [10]); 0.1 to 1 µM in assay [2] (PC-9, 72 h, class symbol); 0.349 µM in [2] (setting [11]); over 1 µM in assay [3] (A-431, 72 h, class symbol); 1.65 µM in assay [3] (setting [12]). Moreover, the IC50 in assay [4] (A549, 72 h, class symbol) is 0.1 to 1 µM; in assay [4] (setting [13]), 0.948 µM; in [5] (NCI-H1975, 72 h, class symbol), 0.01 to 0.1 µM; in assay [5] (setting [14]), 0.024 µM; in [6] (72 h, class symbol), under 0.01 µM; in assay [6] (setting [10]), 0.0041 µM. Moreover, the IC50 in assay [7] (HCC827, 72 h, class symbol) is 0.1 to 1 µM; in assay [7] (setting [15]), 0.812 µM. The DC50 in [8] (setting [16]) and in [9] (setting [18]) was under 0.01 µM in each case. For the same compound, the Dmax in assay [8] (read-out: Baf3-DTC Dmax) and in [9] (read-out: Baf3-LTC Dmax) was 70 to 100% each time.

Take `CCc1cc(Nc2ncc(Cl)c(Nc3ccccc3P(C)(C)=O)n2)c(OC)cc1N1CCN(C(=O)CN2CCC(c3cc4c(cc3F)c(N3CCC(=O)NC3=O)nn4C)CC2)CC1` [TC-213]: the IC50 in [1] (72 h, class symbol) was under 0.01 µM; in assay [1] (setting [10]) it was 0.0089 µM; in [2] (PC-9, 72 h, class symbol) it was 0.1 to 1 µM; in assay [2] (setting [11]) it was 0.505 µM; in [3] (A-431, 72 h, class symbol), over 1 µM; in assay [3] (setting [12]), 1.34 µM. For the same compound, the IC50 in assay [4] (A549, 72 h, class symbol) was over 1 µM; in [4] (setting [13]), 1.77 µM; in assay [5] (NCI-H1975, 72 h, class symbol), 0.01 to 0.1 µM; in assay [5] (setting [14]) it was 0.0359 µM; in assay [6] (72 h, class symbol) it was under 0.01 µM; in assay [6] (setting [10]), 0.0008 µM. The IC50 in assay [7] (HCC827, 72 h, class symbol) is 0.01 to 0.1 µM; in [7] (setting [15]), 0.053 µM. Moreover, the DC50 in assay [8] (setting [16]) and in assay [9] (setting [18]) was 0.01 to 0.1 µM throughout. For the same compound, the Dmax in assay [8] (setting [17]) and in assay [9] (setting [19]) was 70 to 100% throughout.

For the origin of these results see EP4813979A1, “COMPOUND FOR EGFR PROTEIN DEGRADATION AND USE THEREOF” (TYK Medicines, Inc., priority 2023, dated 2025).
